Measured values: patent US20070238765A1, “Heterocyclic GABAA subtype selective receptor modulators” (Roche Palo Alto LLC, priority 2006, published 2007)
Counter-ions that a name gives are not always drawn.

Assays:
[1] = target: T1, GABAA α2β3γ2 (Homo sapiens, UniProt P18507+P28472+P47869); assay: 35S-TBPS binding assay, HEK293 membranes with GABAA α2β3γ2 construct; conditions: 35S-TBPS 5 nM, GABA 1 μM, 2 hours at room temperature, read-out: α2β3γ2 (35S-TBPS binding, pIC50) (converted)
T1 construct: expressed in transfected cells; host or cells: HEK293
T1 sequence (P47869 29-451): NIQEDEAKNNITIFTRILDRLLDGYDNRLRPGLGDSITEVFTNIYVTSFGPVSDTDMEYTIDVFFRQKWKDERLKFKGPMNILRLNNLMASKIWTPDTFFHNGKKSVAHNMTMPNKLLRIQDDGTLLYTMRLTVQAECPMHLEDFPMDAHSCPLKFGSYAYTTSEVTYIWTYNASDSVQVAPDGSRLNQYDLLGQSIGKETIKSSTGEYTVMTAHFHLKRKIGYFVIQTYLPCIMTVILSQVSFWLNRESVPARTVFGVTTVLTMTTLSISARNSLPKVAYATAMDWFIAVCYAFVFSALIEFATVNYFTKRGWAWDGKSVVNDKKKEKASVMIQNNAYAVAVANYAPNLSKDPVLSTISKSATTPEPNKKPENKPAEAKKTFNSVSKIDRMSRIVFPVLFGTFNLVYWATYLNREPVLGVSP
T1 sequence (P28472 26-473): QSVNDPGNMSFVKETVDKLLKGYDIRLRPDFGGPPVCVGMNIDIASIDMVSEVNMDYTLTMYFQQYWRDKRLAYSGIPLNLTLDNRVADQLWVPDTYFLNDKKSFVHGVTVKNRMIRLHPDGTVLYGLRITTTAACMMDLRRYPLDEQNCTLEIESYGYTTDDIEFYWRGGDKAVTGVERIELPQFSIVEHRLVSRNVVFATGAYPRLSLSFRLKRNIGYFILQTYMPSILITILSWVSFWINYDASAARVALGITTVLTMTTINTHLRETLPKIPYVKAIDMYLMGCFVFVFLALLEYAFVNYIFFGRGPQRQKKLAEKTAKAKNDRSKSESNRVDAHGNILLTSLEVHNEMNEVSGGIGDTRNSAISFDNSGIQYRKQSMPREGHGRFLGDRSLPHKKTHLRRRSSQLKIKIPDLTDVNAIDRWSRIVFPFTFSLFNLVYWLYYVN
T1 sequence (P18507 40-475): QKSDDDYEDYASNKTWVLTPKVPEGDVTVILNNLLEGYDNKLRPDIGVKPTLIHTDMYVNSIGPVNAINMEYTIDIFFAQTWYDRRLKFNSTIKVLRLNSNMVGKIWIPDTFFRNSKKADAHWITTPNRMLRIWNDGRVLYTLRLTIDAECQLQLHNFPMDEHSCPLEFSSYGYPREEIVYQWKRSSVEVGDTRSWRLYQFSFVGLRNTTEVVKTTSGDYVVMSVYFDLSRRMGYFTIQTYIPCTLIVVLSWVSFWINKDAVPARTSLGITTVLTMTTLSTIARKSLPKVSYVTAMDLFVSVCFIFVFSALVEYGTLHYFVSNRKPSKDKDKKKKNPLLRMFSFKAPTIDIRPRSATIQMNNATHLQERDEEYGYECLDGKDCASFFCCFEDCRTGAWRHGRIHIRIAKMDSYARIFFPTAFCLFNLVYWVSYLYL
Method: (§1) The binding assay is based on the assay reported by K. Gee et al., Eur. J. Pharmacol. 1987, 136, 419-423.
(§2) Homogenate preparation: Membrane preparations of HEK293 cells containing either GABAA α1β2γ2 or GABAA α2β3γ2 constructs were performed according to a modified procedure previously described by Gee et al. (supra). Whole HEK 293 cells in D-PBS (calcium/magnesium free) buffer adjusted to pH 7.4 were centrifuged at 7,280×g for 20 m. After discarding the supernatant, the pellet was resuspended in the buffer and centrifuged at 1,820×g for 10 m. Afterwards, the supernatant was discarded and the pellet resuspended in ice-cold preparation buffer (50 mM Tris HCl pH 7.4, 4° C. and 150 mM KCl), homogenized for 30 sec using a Brinkmann Polytron PT3000 (setting 6) and centrifuged at 48,000×g for 30 m at 4° C. The centrifugation and homogenization procedure was repeated two more times for a total of 3 times before resuspending the membranes at a final protein concentration of 0.5 mg/mL. Aliquots (30 mL) of the final membrane preparation were then centrifuged at 48,000×g for 30 m, and the resulting pellets were stored at −80° C. until required.
(§3) 35S-TBPS binding assay. Membrane pellets containing either GABAA α1β2γ2 or GABAA α2β3γ2 constructs were thawed on ice, resuspended in 10 mL of 50 mM Tris HCl pH7.4, 4° C. and 150 mM KCl and centrifuged at 48,000×g, 30 m at 4° C. After discarding the supernatant, the pellet was resuspended in 30 mL incubation buffer (50 mM Tris HCl pH 7.4, 25° C. and 150 mM KCl) at approximately 0.5 mg/mL protein concentration. In 35S-TBPS competition studies, HEK293 membranes were incubated with 35S-TBPS (5 nM final) and GABA (1 μM) in the absence or presence of competitor at concentrations ranging from 0.01 nM to 10 μM in 125 μL incubation buffer for 2 hours at room temperature (˜22° C.). Non-specific binding was assayed with picrotoxin (100 μM final concentration). The binding reaction was terminated by vacuum filtration through GF/B filters previously soaked in 0.1% polyethylenimine followed by 3×1 mL washes with ice cold wash buffer (50 mM Tris HCl pH7.4, 4° C. and 150 mM KCl). Measurement of bound radioactivity was performed using a Packard Microplate 96 well topcount scintillation counter. Analysis of competition curves and estimation of pIC50 values of test compounds were performed using the software programs ActivityBase and/or Prism (version 3.0).

[2] = target: T2, GABAA α1β2γ2 (Homo sapiens, UniProt P14867+P18507+P47870); assay: 35S-TBPS binding assay, HEK293 membranes with GABAA α1β2γ2 construct; conditions: 35S-TBPS 5 nM, GABA 1 μM, 2 hours at room temperature, read-out: α1β2γ2 (35S-TBPS binding, pIC50) (converted)
T2 construct: expressed in transfected cells; host or cells: HEK293
T2 sequence (P14867 28-456): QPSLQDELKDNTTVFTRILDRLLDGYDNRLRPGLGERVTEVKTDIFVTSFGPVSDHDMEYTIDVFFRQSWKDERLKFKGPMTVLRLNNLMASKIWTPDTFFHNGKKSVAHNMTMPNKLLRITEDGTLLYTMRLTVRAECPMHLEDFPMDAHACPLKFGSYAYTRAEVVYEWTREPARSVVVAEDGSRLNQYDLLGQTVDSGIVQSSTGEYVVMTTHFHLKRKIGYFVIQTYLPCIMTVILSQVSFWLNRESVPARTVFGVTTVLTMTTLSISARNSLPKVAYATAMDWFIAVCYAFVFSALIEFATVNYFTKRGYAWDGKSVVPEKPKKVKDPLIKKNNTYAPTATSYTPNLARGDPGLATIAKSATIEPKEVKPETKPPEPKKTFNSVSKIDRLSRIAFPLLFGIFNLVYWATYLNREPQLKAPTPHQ
T2 sequence (P47870 25-512 limits assumed): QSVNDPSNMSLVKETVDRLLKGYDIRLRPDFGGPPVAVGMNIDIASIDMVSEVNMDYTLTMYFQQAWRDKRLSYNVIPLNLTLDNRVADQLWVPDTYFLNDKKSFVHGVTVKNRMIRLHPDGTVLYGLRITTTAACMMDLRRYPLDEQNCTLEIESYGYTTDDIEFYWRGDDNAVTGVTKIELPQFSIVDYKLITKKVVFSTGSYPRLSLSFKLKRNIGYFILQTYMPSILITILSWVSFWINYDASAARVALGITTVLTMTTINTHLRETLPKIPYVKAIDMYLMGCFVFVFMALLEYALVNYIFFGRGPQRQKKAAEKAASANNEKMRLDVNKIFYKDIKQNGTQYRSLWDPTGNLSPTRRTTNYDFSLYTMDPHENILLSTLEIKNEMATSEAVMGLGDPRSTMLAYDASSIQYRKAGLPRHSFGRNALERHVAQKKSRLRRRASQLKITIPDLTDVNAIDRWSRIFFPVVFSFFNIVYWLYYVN
T2 sequence (P18507 40-475): as the sequence (P18507 40-475) above
Method: as §1, §2, §3

SMILES | IC50 [1] [nM] | IC50 [2] [nM] | melting point [°C]
Cn1nc2c(-c3ccc(Cl)cc3Cl)cccc2c1Cn1cnnn1 [I-43, 7-(2,4-Dichloro-phenyl)-2-meth-yl-3-tetrazol-1-yl-methyl-2H-indazole] | 832 | 8910 | –
COC(=O)c1cncn1Cc1c2cccc(-c3ccc(Cl)cc3Cl)c2nn1C [I-13, 3-[7-(2,4-Dichloro-phenyl)-2-meth-yl-2H-indazol-3-yl-methyl]-3H-imidazole-4-carboxy-lic acid methyl ester] | 912 | – | –
Cn1nc2c(-c3ccc(Cl)cc3Cl)cccc2c1CC1=NCCN1 [I-29, 7-(2,4-Dichloro-phenyl)-3-(4,5-di-hydro-1H-imidazol-2-yl-methyl)-2-methyl-2H-inda-zole] | > 10000 | > 10000 | –
CCOC(=O)c1nccn1Cc1c2cccc(-c3ccc(Cl)cc3Cl)c2nn1C [I-14, 1-[7-(2,4-Dichloro-phenyl)-2-meth-yl-2H-indazol-3-yl-methyl]-1H-imidazole-2-carboxy-lic acid ethyl ester] | 832 | 4790 | –
Cn1nc2c(-c3ccc(Cl)cc3Cl)cccc2c1-c1cnc[nH]1 [I-36, 7-(2,4-Dichloro-phenyl)-3-(3H-imi-dazol-4-yl)-2-meth-yl-2H-indazolehydrochloride] | 145 | 7240 | –
CCOC(=O)Cc1nnnn1Cc1c2cccc(-c3ccc(Cl)cc3Cl)c2nn1C [I-7, {1-[7-(2,4-Dichloro-phenyl)-2-meth-yl-2H-indazol-3-yl-methyl]-1H-tetrazol-5-yl}-aceticacid ethyl ester] | 2690 | > 10000 | –
Cn1nc2c(-c3ccc(Cl)cc3Cl)cccc2c1N1C(=O)CCC1=O [I-44, 1-[7-(2,4-Dichloro-phenyl)-2-meth-yl-2H-indazol-3-yl]-pyr-rolidine-2,5-dione] | 3630 | > 10000 | –
Cn1nc2c(-c3ccc(Cl)cc3Cl)cccc2c1Cc1ncc[nH]1 [I-21, 7-(2,4-Dichloro-phenyl)-3-(1H-imi-dazol-2-ylmethyl)-2-meth-yl-2H-indazole] | 550 | 3550 | –
CCOC(c1cnc[nH]1)c1c2cccc(-c3ccc(Cl)cc3Cl)c2nn1C (stereo not drawn) [I-26, 7-(2,4-Dichloro-phenyl)-3-[eth-oxy-(3H-imidazol-4-yl)-meth-yl]-2-methyl-2H-inda-zole] | 513 | 6170 | –
Cn1nc2c(-c3ccc(Cl)cc3Cl)cccc2c1Cn1cncn1 [I-42, 7-(2,4-Dichloro-phenyl)-2-meth-yl-3-[1,2,4]triazol-1-yl-methyl-2H-indazole] | 603 | 5010 | –
CCOC(=O)Cc1ncn(Cc2c3cccc(-c4ccc(Cl)cc4Cl)c3nn2C)n1 [I-58, {1-[7-(2,4-Dichloro-phenyl)-2-meth-yl-2H-indazol-3-yl-methyl]-1H-[1,2,4]triazol-3-yl}-aceticacid ethyl ester] | – | – | 80.8 to 84
COCn1ncnc1C(=O)c1c2cccc(-c3ccc(Cl)cc3Cl)c2nn1C [I-19, [7-(2,4-Dichloro-phenyl)-2-meth-yl-2H-indazol-3-yl]-(2-meth-oxymethyl-2H-[1,2,4]tri-azol-3-yl)-meth-anone] | 1620 | > 10000 | –
Cn1nc2c(-c3ccc(Cl)cc3Cl)cccc2c1Cc1nnnn1CS(C)(=O)=O [I-9, 7-(2,4-Dichloro-phenyl)-3-(1-meth-anesulfonylmethyl-1H-tetra-zol-5-ylmethyl)-2-meth-yl-2H-indazole] | > 10000 | > 10000 | –
Cn1nnc(-c2c3cccc(-c4ccc(Cl)cc4Cl)c3nn2C)n1 [I-52, 7-(2,4-Dichloro-phenyl)-2-meth-yl-3-(2-methyl-2H-tetra-zol-5-yl)-2H-indazole] | 141 | 3630 | –
Cn1nc2c(-c3ccc(Cl)cc3Cl)cccc2c1Cn1ccnc1 [I-40, 7-(2,4-Dichloro-phenyl)-3-imi-dazol-1-ylmethyl-2-meth-yl-2H-indazole] | 1150 | 4070 | –
Cn1nc2c(-c3ccc(Cl)cc3Cl)cccc2c1-c1nnn[nH]1 [I-54, 7-(2,4-Dichloro-phenyl)-2-meth-yl-3-(1H-tetrazol-5-yl)-2H-inda-zole] | 692 | 2950 | –
Cn1nc2c(-c3ccc(Cl)cc3Cl)cccc2c1Cc1cnc[nH]1 [I-25, 7-(2,4-Dichloro-phenyl)-3-(3H-imi-dazol-4-ylmethyl)-2-meth-yl-2H-indazole] | 1150 | > 10000 | –
Cn1nc2c(-c3ccc(Cl)cc3Cl)cccc2c1-c1ncc[nH]1 [I-45, 7-(2,4-Dichloro-phenyl)-3-(1H-imi-dazol-2-yl)-2-meth-yl-2H-indazole] | 537 | 5620 | –
Cn1nc2c(-c3ccc(Cl)cc3Cl)cccc2c1C(O)c1cnc[nH]1 (stereo not drawn) [I-27, [7-(2,4-Dichloro-phenyl)-2-meth-yl-2H-indazol-3-yl]-(3H-imi-dazol-4-yl)-methanol] | 550 | 2340 | –
Cn1nc2c(-c3ccc(Cl)cc3Cl)cccc2c1Cn1ncnn1 [I-49, 7-(2,4-Dichloro-phenyl)-2-meth-yl-3-tetrazol-2-yl-methyl-2H-indazole] | 372 | 2240 | –
Cn1nc2c(-c3ccc(Cl)cc3Cl)cccc2c1C(=O)c1nccn1CCO [I-24, [7-(2,4-Dichloro-phenyl)-2-meth-yl-2H-indazol-3-yl]-[1-(2-hydroxy-ethyl)-1H-imi-dazol-2-yl]-methanone] | 214 | 3720 | –
Cn1nc2c(-c3ccc(Cl)cc3Cl)cccc2c1Cn1cccn1 [I-37, 7-(2,4-Dichloro-phenyl)-2-meth-yl-3-pyrazol-1-yl-methyl-2H-indazole] | 380 | 2750 | –
Cn1nc2c(-c3ccc(Cl)cc3Cl)cccc2c1Cn1nccn1 [I-17, 7-(2,4-Dichloro-phenyl)-2-meth-yl-3-[1,2,3]triazol-2-yl-methyl-2H-indazole] | 427 | > 10000 | –
Cn1nnnc1C(O)c1c2cccc(-c3ccc(Cl)cc3Cl)c2nn1C (stereo not drawn) [I-32, [7-(2,4-Dichloro-phenyl)-2-meth-yl-2H-indazol-3-yl]-(meth-yl-1H-tetrazol-5-yl)-meth-anol] | 398 | 5890 | –
Cn1nc2c(-c3ccc(Cl)cc3Cl)cccc2c1Cn1ccnn1 [I-16, 7-(2,4-Dichloro-phenyl)-2-meth-yl-3-[1,2,3]triazol-1-yl-methyl-2H-indazole] | 1200 | 5890 | –
Cn1nc2c(-c3ccc(Cl)cc3Cl)cccc2c1C(O)c1ncc[nH]1 (stereo not drawn) [I-28, [7-(2,4-Dichloro-phenyl)-2-meth-yl-2H-indazol-3-yl]-(1H-imi-dazol-2-yl)-methanol] | 148 | 575 | –
Cn1nc2c(-c3ccc(Cl)cc3Cl)cccc2c1C(=O)c1ncc[nH]1 [I-30, [7-(2,4-Dichloro-phenyl)-2-meth-yl-2H-indazol-3-yl]-(1H-imi-dazol-2-yl)-meth-anone] | 166 | 4470 | –
CCOC(=O)Cc1ncnn1Cc1c2cccc(-c3ccc(Cl)cc3Cl)c2nn1C [I-59, {2-[7-(2,4-Dichloro-phenyl)-2-meth-yl-2H-indazol-3-yl-methyl]-2H-[1,2,4]triazol-3-yl}-aceticacid ethyl ester] | – | – | 167.9 to 168.9
CN(C)S(=O)(=O)n1ccnc1C(O)c1c2cccc(-c3ccc(Cl)cc3Cl)c2nn1C (stereo not drawn) [I-35, 2-{[7-(2,4-Dichloro-phenyl)-2-meth-yl-2H-indazol-3-yl]-hydroxy-methyl}-imidazole-1-sulfonicacid dimethyl-amide] | – | > 10000 | –
